Measurements: patent US9045524B2, “Selective caspase inhibitors and uses thereof” (NOVAGENESIS FOUNDATION, priority 2009, dated 2015)

Tests used:
[1] = biological target: Caspase-2 (Homo sapiens (Human), UniProt P42575); test: Fluorometric enzymatic assay, active recombinant Caspase-2; type: biochemical
Method: (§1) . In brief, each compound was serially diluted for a final test concentration range of 0.1 nM to 3.3 μM (10-point titration). Each active recombinant Caspase (Active Recombinant Caspase Set IV™ (BioVision, Cat# K233-10-25)) was added to the respective wells of the 96-well High Efficiency™ plates (Molecular Devices, Cat#75-000-0005), followed by the addition of the diluted test compounds. DMSO (Final=1%) or Z-VAD-FMK (Caspase-Family Inhibitor, Z-VAD-FMK (BioVision, Cat#1010-100), Final concentration=20 uM) was added in the designated wells as a background control or positive inhibitor control respectively. Each dilution of the test compounds was tested in duplicates, whereas the DMSO or Z-VAD-FMK controls were tested in triplicates. The synthetic peptide substrate specific for each Caspase (BioVision) was then added to the respective wells, which when cleaved by the active caspase releases free AFC that can be quantified by fluorometry. After a 30-minute incubation at 37° C., the plates were read using the Flexstation 3™ with a 400 nm excitation filter and a 505 nm emission filter (cutoff at 495 nm). The inhibition efficiency and the IC50 values of the test compounds were then determined by comparing the fluorescence intensity (FI) of the test compounds with that of the DMSO control.
(§2) The SoftMax Pro Software™ (v5.2 rev C, Molecular Devices) was used for data analysis. The % Inhibition is calculated by: % Inhibition=[FI(DMSO)−FI(test sample)/FI(DMSO)]×100. The % Inhibition vs. Log(concentration) was plotted, and the curve was fitted using the 5-parameter fit of the software.

[2] = biological target: Caspase-5 (Homo sapiens (Human), UniProt P51878); test: Fluorometric enzymatic assay, active recombinant Caspase-5; type: biochemical
Chain of Caspase-5 (P51878 whole entry, looked up): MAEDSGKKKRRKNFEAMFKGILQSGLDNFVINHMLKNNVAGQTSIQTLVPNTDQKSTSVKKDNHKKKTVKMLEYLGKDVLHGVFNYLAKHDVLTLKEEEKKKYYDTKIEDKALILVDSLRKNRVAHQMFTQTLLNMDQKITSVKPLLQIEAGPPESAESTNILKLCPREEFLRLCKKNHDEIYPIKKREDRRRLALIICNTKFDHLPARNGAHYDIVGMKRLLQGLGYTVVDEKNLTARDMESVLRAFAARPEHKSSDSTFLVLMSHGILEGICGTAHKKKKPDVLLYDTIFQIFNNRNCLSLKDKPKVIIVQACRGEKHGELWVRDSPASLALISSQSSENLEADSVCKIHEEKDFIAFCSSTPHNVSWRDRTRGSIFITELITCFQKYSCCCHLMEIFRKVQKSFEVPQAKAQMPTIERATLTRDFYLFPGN
Chain of Caspase-5 (P51878 whole entry, looked up): as above
Method: as §1, §2

[3] = biological target: Caspase-6 (Homo sapiens (Human), UniProt P55212); test: Fluorometric enzymatic assay, active recombinant Caspase-6; type: biochemical
Chain of Caspase-6 (P55212 24-179): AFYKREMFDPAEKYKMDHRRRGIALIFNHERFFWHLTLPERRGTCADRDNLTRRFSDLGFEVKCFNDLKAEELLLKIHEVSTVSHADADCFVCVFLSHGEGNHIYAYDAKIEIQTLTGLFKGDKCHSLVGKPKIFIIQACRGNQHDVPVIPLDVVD
Chain of Caspase-6 (P55212 194-293): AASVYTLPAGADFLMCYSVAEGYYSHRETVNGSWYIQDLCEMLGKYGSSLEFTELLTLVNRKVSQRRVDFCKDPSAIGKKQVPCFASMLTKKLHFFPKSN
Method: as §1, §2

[4] = biological target: Caspase-8 (Homo sapiens (Human), UniProt Q14790); test: Fluorometric enzymatic assay, active recombinant Caspase-8; type: biochemical
Chain of Caspase-8 (Q14790 217-374): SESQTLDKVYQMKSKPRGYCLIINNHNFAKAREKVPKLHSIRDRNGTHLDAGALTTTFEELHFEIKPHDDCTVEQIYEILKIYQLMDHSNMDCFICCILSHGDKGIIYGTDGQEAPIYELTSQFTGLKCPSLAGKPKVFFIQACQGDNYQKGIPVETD
Chain of Caspase-8 (Q14790 385-479): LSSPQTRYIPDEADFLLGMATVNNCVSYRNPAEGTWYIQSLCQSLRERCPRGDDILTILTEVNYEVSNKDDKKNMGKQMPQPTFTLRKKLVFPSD
Method: as §1, §2

[5] = biological target: Caspase-1 (Homo sapiens (Human), UniProt P29466); test: Fluorometric enzymatic assay, active recombinant Caspase-1
Chain of Caspase-1 (P29466 whole entry, looked up): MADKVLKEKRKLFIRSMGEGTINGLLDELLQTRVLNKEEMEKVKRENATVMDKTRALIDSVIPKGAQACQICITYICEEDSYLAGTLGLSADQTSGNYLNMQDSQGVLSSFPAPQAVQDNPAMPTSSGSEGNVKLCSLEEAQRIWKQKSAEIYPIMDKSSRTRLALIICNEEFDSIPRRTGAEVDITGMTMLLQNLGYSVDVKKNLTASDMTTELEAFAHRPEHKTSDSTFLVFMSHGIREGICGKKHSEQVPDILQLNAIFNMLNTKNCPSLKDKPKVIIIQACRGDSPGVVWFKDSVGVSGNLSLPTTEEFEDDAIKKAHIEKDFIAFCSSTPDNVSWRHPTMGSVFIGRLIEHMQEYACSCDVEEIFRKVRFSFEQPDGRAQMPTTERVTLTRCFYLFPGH
Chain of Caspase-1 (P29466 whole entry, looked up): as above
Method: (§3) Each dilution of the test compounds was tested in duplicates, whereas the DMSO or Z-VAD-FMK controls were tested in triplicates. […] The inhibition efficiency and the IC50 values of the test compounds were then determined by comparing the fluorescence intensity (FI) of the test compounds with that of the DMSO control.

[6] = biological target: Caspase-4 (Homo sapiens (Human), UniProt P49662); test: Fluorometric enzymatic assay, active recombinant Caspase-4
Chain of Caspase-4 (P49662 81-270): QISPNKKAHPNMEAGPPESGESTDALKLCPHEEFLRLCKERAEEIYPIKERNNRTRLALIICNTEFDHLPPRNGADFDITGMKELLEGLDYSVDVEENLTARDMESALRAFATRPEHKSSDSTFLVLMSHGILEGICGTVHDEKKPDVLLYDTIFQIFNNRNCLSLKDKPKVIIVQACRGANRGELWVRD
Chain of Caspase-4 (P49662 290-377): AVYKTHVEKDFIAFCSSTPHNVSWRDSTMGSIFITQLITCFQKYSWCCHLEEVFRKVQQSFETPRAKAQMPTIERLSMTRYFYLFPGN
Method: as §3

[7] = biological target: Caspase-7 (Homo sapiens (Human), UniProt P55210); test: Fluorometric enzymatic assay, active recombinant Caspase-7
Chain of Caspase-7 (P55210 whole entry, looked up): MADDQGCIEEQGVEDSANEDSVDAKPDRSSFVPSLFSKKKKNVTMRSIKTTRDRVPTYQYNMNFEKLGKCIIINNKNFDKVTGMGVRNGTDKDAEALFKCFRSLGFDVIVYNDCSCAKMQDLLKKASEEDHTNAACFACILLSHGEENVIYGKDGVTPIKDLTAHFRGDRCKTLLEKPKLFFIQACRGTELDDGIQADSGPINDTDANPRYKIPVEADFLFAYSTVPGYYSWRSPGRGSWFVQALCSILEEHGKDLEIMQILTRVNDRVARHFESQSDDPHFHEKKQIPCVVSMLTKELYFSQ
Chain of Caspase-7 (P55210 whole entry, looked up): as above
Method: as §3

[8] = biological target: Caspase-9 (Homo sapiens (Human), UniProt P55211); test: Fluorometric enzymatic assay, active recombinant Caspase-9; conditions: FIG. 5
Chain of Caspase-9 (P55211 whole entry, looked up, change not shown): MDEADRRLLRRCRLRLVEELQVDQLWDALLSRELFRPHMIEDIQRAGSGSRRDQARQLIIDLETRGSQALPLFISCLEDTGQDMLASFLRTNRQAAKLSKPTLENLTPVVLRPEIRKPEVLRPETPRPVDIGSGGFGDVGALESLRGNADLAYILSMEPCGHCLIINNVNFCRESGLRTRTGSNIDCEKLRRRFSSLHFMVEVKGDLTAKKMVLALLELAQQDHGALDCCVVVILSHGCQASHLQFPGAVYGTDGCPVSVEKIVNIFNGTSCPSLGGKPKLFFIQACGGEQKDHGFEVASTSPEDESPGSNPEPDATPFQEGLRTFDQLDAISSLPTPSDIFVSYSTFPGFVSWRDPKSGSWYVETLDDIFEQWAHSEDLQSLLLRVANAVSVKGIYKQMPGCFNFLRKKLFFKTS
Chain of Caspase-9 (P55211 whole entry, looked up, change not shown): as above
Method: as §3

[9] = biological target: Caspase-10 (Homo sapiens (Human), UniProt Q92851); test: Fluorometric enzymatic assay, active recombinant Caspase-10
Chain of Caspase-10 (Q92851 220-415): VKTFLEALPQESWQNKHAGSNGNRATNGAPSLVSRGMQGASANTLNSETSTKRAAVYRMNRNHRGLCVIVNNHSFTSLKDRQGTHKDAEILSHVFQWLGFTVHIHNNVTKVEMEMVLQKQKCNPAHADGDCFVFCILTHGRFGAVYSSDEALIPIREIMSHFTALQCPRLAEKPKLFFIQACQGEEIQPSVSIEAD
Chain of Caspase-10 (Q92851 416-521): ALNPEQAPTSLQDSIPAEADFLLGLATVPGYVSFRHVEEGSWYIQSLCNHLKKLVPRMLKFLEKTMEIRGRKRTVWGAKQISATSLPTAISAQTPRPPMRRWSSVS
Method: as §3

Chain of Caspase-2 (P42575 170-325): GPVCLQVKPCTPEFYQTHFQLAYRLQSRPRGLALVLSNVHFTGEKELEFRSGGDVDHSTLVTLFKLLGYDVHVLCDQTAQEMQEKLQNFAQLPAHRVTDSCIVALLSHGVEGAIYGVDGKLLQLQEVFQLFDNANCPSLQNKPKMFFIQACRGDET
Chain of Caspase-2 (P42575 348-452): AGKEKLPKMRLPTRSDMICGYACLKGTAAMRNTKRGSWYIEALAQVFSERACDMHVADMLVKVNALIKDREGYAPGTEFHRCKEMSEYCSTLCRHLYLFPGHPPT

Compound: COC(=O)CC[C@H](NC(=O)[C@H](CC(=O)OC)NC(=O)OCc1ccccc1)C(=O)N[C@H](C(=O)N[C@@H](CC(=O)OC)C(=O)CF)C(C)C [Z-DEVD-FMK, z-D(OMe)E(OMe)VD(OMe)FMK, reference compound]
- IC50 [1]: > 3.33 µM
- inhibitory activity towards Caspase-2 ([1]; FIG. 5): negligible
- IC50 [2]: > 3.33 µM
- inhibitory activity towards Caspase-5 ([2]; FIG. 5): negligible
- IC50 [3]: > 3.33 µM
- inhibitory activity towards Caspase-6 ([3]; FIG. 5): negligible
- IC50 [4]: 1.6 µM
- inhibitory activity towards Caspase-8 ([4]; FIG. 5): inhibitory activity
- IC50 [5]: 0.7 µM
- inhibitory activity towards Caspase-1 ([5]; FIG. 5): inhibitory activity
- IC50 [6]: 2.5 µM
- inhibitory activity towards Caspase-4 ([6]; FIG. 5): inhibitory activity
- IC50 [7]: > 3.33 µM
- inhibitory activity towards Caspase-9 [8]: inhibitory activity
- IC50 [9]: 2.7 µM
- inhibitory activity towards Caspase-10 ([9]; FIG. 5): inhibitory activity
